The target of this assay is T1, Tau P301L (Homo sapiens, UniProt P10636, P618L).
T1 construct: expressed in transfected cells
In words: In vitro tau degradation assay in CHOK1 Tau P301L cells (sarkosyl insoluble tau, WES). It is filed as cell-based. As to conditions: remaining tau protein in sarkosyl insoluble pellet, CHOK1 Tau P301L cells treated 48 hours with test compound at 1 μM, doxycycline removed for the last 24 hours, relative to DMSO doxycycline control; for remaining activity at 1 µM: CHO-K1, read-out: Tau Protein Degradation effect at 1 μM. As to the method: Exemplary bifunctional molecules of the present disclosure are represented by the structures in Table 1, which includes associated data. In vitro tau protein degradation data in CHOK1 Tau P301L cells, as described below, is reported based on the remaining tau protein in the sarkosyl insoluble pellet following treatment of cells for 48 hours with test compound at the 1 μM concentration where the last 24 hours doxycycline was removed. The data are represented relative to DMSO doxycycline control: • A ≤50% of tau protein remaining (>50% of tau protein degraded) • B >50% of tau protein remaining ([…] of tau protein degraded)
Data for compounds in Table 1 was generated using in vitro tau Degradation Assay protocol as described in Methods for FIGS. 2A and 2B below.
FIGS. 2A and 2B. (2A) Tau expression was induced by addition (+) of doxycycline (1 μg/ml) to ChoK1-Tau P301L clone D1.
In vitro tau Degradation Assay for FIGS. 2A and 2B. T-Rex CHOK1 cells are maintained in Ham's F-12 Nutrient Mix (ThermoFisher) plus 10% Fetal Bovine Serum Tetracycline Negative (Corning) with 10 ug/mL Blasticidin S HCl (Gibco) and 200 ug/mL Zeocin (100 mg/mL, Invitrogen). A stable clone expressing Tau P301L in the presence of doxycycline (1 μg/ml), clone D1 was selected. Compounds were diluted to indicated concentrations and used to treat cells for the indicated times. Cells were harvested from either 96, 24, 6, or 10 cm dishes coated with Poly-D-Lysine (Corning) in ice cold PBS or Buffer H+HALT Protease and phosphatase inhibitors (Thermofisher). Sarkosyl Insoluble tau was isolated as described in Eckermann et al. and Greenberg and Davies, accordingly. WES™ capillary electrophoresis analysis was performed on the Sarkosyl Insoluble tau fraction using Tau1 antibody (Milipore) unless otherwise indicated, as specified in the manufacturers specification (ProteinSimple).

Data on 16 compounds can be found in US11912699B2, “Tau-protein targeting compounds and associated” (Arvinas Operations, Inc., priority 2019, dated 2024).

Where only a bound is given, the exact number is not on record here.

T1 sequence (P10636 1-441 isoform P10636-8 P301L): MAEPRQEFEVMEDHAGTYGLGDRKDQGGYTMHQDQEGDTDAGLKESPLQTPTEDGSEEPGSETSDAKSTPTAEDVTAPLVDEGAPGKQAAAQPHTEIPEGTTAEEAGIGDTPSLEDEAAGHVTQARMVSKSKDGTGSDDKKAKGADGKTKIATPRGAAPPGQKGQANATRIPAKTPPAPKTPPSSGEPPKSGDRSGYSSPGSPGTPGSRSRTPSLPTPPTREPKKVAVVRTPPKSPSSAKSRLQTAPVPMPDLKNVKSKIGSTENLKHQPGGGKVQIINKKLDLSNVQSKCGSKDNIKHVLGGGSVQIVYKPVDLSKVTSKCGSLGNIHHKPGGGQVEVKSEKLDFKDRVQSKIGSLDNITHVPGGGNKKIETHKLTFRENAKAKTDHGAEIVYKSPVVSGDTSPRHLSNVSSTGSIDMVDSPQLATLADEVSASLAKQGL

On to `Cc1ncsc1-c1ccc([C@H](C)NC(=O)[C@@H]2C[C@@H](O)CN2C(=O)[C@@H](c2cc(OCCN3CCC(OC4CN(c5ccc(-c6ccc7c8cnccc8n(C)c7c6)cn5)C4)CC3)no2)C(C)C)cc1` (single isomer, unassigned) [Compound 467], for which the remaining activity at 1 µM was greater than 50%.

As for `Cc1ncsc1-c1ccc([C@H](C)NC(=O)[C@@H]2C[C@@H](O)CN2C(=O)C(c2cc(OCCOCCOCCOc3ccc(-c4ccc5c(c4)[nH]c4ccncc45)cn3)no2)C(C)C)cc1` (stereo in doubt) [Compound 395, (2S,4R)-1-((S)-2-(3-(2-(2-(2-((5-(5H-pyrido[4,3-b]indol-7-yl)pyridin-2-yl)oxy)ethoxy)ethoxy)ethoxy)isoxazol-5-yl)-3-methylbutanoyl)-4-hydroxy-N-((S)-1-(4-(4-methylthiazol-5-yl)phenyl)ethyl) pyrrolidine-2-carboxamide], the remaining activity at 1 µM was greater than 50%.

With `Cn1c2ccncc2c2ccc(-c3ccc(O[C@H]4C[C@H](Oc5ccc(C#CCN6CC(Oc7ccc8c(c7)CN(C7CCC(=O)NC7=O)C8=O)C6)nc5)C4)nc3)cc21` (stereo partly shown) [Compound 340, 3-(5-((1-(3-(5-((1r,3r)-3-((5-(5-methyl-5H-pyrido[4,3-b]indol-7-yl)pyridin-2-yl)oxy)cyclobutoxy)pyridin-2-yl)prop-2-yn-1-yl)azetidin-3-yl)oxy)-1-oxoisoindolin-2-yl)piperidine-2,6-dione], the remaining activity at 1 µM was greater than 50%.

`Cn1c2ccncc2c2ccc(-c3ccc(O[C@H]4C[C@H](OC5CCN(CCN6CCN(c7ccc8c(c7)C(=O)N(C7CCC(=O)NC7=O)C8=O)CC6)CC5)C4)nc3)cc21` (stereo partly shown) [Compound 341, 2-(2,6-dioxopiperidin-3-yl)-5-(4-(2-(4-((1r,3r)-3-((5-(5-methyl-5H-pyrido[4,3-b]indol-7-yl)pyridin-2-yl)oxy)cyclobutoxy)piperidin-1-yl)ethyl)piperazin-1-yl) isoindoline-1,3-dione]: the remaining activity at 1 µM was greater than 50%.

Regarding `Cn1c2ccncc2c2ccc(-c3ccc(O[C@H]4C[C@H](OCCCN5CCN(c6ccc7c(c6)C(=O)N(C6CCC(=O)NC6=O)C7=O)CC5)C4)nc3)cc21` (stereo partly shown) [Compound 343, 2-(2,6-dioxopiperidin-3-yl)-5-(4-(3-((1r,3r)-3-((5-(5-methyl-5H-pyrido[4,3-b]indol-7-yl)pyridin-2-yl)oxy)cyclobutoxy)propyl)piperazin-1-yl)isoindoline-1,3-dione], the remaining activity at 1 µM was less than 50%.

Turning to `Cn1c2ccncc2c2ccc(-c3ccc(O[C@H]4C[C@H](Oc5ccc(C#CCNCCCc6ccc7c(c6)CN(C6CCC(=O)NC6=O)C7=O)nc5)C4)nc3)cc21` (stereo partly shown) [Compound 346, 3-(5-(3-((3-(5-((1r,3r)-3-((5-(5-methyl-5H-pyrido[4,3-b]indol-7-yl)pyridin-2-yl)oxy)cyclobutoxy)pyridin-2-yl)prop-2-yn-1-yl)amino)propyl) 1-oxoisoindolin-2-yl)piperidine-2,6-dione], the remaining activity at 1 µM is greater than 50%.

With `Cc1ncsc1-c1ccc([C@H](C)NC(=O)[C@@H]2C[C@@H](O)CN2C(=O)[C@@H](NC(=O)COCCOCCOCCOCCOCCOc2cc3ccn(-c4cc5c(N)cccc5cn4)c3cn2)C(C)(C)C)cc1` [Compound 351, (2S,4R)-1-((S)-20-((1-(5-aminoisoquinolin-3-yl)-1H-pyrrolo[2,3-c]pyridin-5-yl)oxy)-2-(tert-butyl)-4-oxo-6,9,12,15,18-pentaoxa-3-azaicosanoyl)-4-hydroxy-N-((S)-1-(4-(4-methylthiazol-5-yl)phenyl)ethyl) pyrrolidine-2-carboxamide], the remaining activity at 1 µM was greater than 50%.

On to `Nc1cccc2cnc(-n3ccc4cc(OCCOCCOCCOCCOCCOc5ccc6c(c5)C(=O)N(C5CCC(=O)NC5=O)C6=O)ncc43)cc12` (stereo not shown) [Compound 352, 5-((14-((1-(5-aminoisoquinolin-3-yl)-1H-pyrrolo[2,3-c]pyridin-5-yl)oxy)-3,6,9, 12-tetraoxatetradecyl)oxy)-2-(2,6-dioxo-piperidin-3-yl) isoindoline-1,3-dione], for which the remaining activity at 1 µM is less than 50%.

Turning to `Nc1cccc2cnc(-n3ccc4cc(OCCOCCOCCOCCOc5ccc6c(c5)C(=O)N(C5CCC(=O)NC5=O)C6=O)ncc43)cc12` (stereo not shown) [Compound 353, 5-(2-(2-(2-(2-((1-(5-aminoisoquinolin-3-yl)-1H-pyrrolo[2,3-c]pyridin-5-yl)oxy)ethoxy)ethoxy)ethoxy)ethoxy)-2-(2,6-dioxopipieridin-3-yl)isoindoline-1,3-dione], the remaining activity at 1 µM is less than 50%.

Take `Cc1cnc(Nc2ccc3cnccc3c2)cc1OCCOCCOCCOCCOc1ccc2c(c1)C(=O)N(C1CCC(=O)NC1=O)C2=O` (stereo not shown) [Compound 369, 2-(2,6-dioxopiperidin-3-yl)-5-(2-(2-(2-(2-((2-(isoquinolin-6-ylamino)-5-methylpyridin-4-yl)oxy)ethoxy)ethoxy)ethoxy)ethoxy) isoindoline-1,3-dione]: the remaining activity at 1 µM is less than 50%.

As for `Cc1ncsc1-c1ccc([C@H](C)NC(=O)[C@@H]2C[C@@H](O)CN2C(=O)[C@@H](c2cc(OCCN3CCN(CCN4CCC(O[C@H]5C[C@H](Oc6ccc(-c7ccc8c9cnccc9n(C)c8c7)cn6)C5)CC4)CC3)no2)C(C)C)cc1` [Compound 372, (2S,4R)-4-hydroxy-1-((R)-3-methyl-2-(3-(2-(4-(2-(4-((1r,3r)-3-((5-(5-methyl-5H-pyrido[4,3-b]indol-7-yl)pyridin-2-yl)oxy)cyclobutoxy)piperidin-1-yl)ethyl)piperazin-1-yl)ethoxy)isoxazol-5-yl)butanoyl)-N-((S)-1-(4-(4-methylthiazol-5-yl)phenyl)ethyl) pyrrolidine-2-carboxamide], the remaining activity at 1 µM was greater than 50%.

For the compound `Cc1ncsc1-c1ccc([C@H](C)NC(=O)[C@@H]2C[C@@H](O)CN2C(=O)[C@@H](NC(=O)COCCOCCOCCOCCOc2ccc3cc(-n4ccc5ccncc54)ncc3c2)C(C)(C)C)cc1` [Compound 375, (2S,4R)-1-((S)-17-((3-(1H-pyrrolo[2,3-c]pyridin-1-yl)isoquinolin-7-yl)oxy)-2-(tert-butyl)-4-oxo-6,9,12,15-tetraoxa-3-azaheptadecanoyl)-4-hydroxy-N-((S)-1-(4-(4-methylthiazol-5-yl)phenyl)ethyl) pyrrolidine-2-carboxamide], the remaining activity at 1 µM is greater than 50%.

Turning to `O=C1CCC(N2C(=O)c3ccc(N4CCN(CCCC5CCN(CC6CC(Oc7ccc(-c8ccc9c(c8)[nH]c8ccncc89)cn7)C6)CC5)CC4)cc3C2=O)C(=O)N1` (stereo not shown) [Compound 376, 5-(4-(3-(1-(((1r,3r)-3-((5-(5H-pyrido[4,3-b]indol-7-yl)pyridin-2-yl)oxy)cyclobutyl)methyl)piperidin-4-yl)propyl)piperazin-1-yl)-2-(2,6-dioxopiperidin-3-yl)isoindoline-1,3-dione], the “Tau Protein Degradation effect at 1 μM” value is “B (>50% of tau protein remaining (≥50% of tau protein degraded))”.

Take `Cc1ncsc1-c1ccc([C@H](C)NC(=O)[C@@H]2C[C@@H](O)CN2C(=O)[C@@H](NC(=O)COCCCCCN2CCC(OC3CC(Oc4ccc(-c5ccc6c7cnccc7n(C)c6c5)cn4)C3)CC2)C(C)(C)C)cc1` (stereo partly drawn) [Compound 377, (2S,4R)-1-((S)-3,3-dimethyl-2-(2-((5-(4-((1r,3r)-3-((5-(5-methyl-5H-pyrido[4,3-b]indol-7-yl)pyridin-2-yl)oxy)cyclobutoxy)piperidin-1-yl)pentyl)oxy)acetamido)butanoyl)-4-hydroxy-N-((S)-1-(4-(4-methythiazol-5-yl)phenyl)ethyl) pyrrolidine-2-carboxamide]: the remaining activity at 1 µM was greater than 50%.

Turning to `Cc1ncsc1-c1ccc([C@H](C)NC(=O)[C@@H]2C[C@@H](O)CN2C(=O)[C@H](c2cc(OCCCCCN3CCC(O[C@H]4C[C@H](Oc5ccc(-c6ccc7c8cnccc8n(C)c7c6)cn5)C4)CC3)no2)C(C)C)cc1` [Compound 378, (2S,4R)-4-hydroxy-1-((S)-3-methyl-2-(3-((5-(4-((1r,3r)-3-((5-(5-methyl-5H-pyrido[4,3-b]indol-7-yl)pyridin-2-yl)oxy)cyclobutoxy)piperidin-1-yl)pentyl)oxy)isoxazol-5-yl)butanoyl)-N-((S)-1-(4-(4-methylthiazol-5-yl)phenyl)ethyl) pyrrolidine-2-carboxamide], the remaining activity at 1 µM is greater than 50%.

Consider `Cc1ncsc1-c1ccc([C@H](C)NC(=O)[C@@H]2C[C@@H](O)CN2C(=O)[C@@H](c2cc(OCCCCCN3CCC(O[C@H]4C[C@H](Oc5ccc(-c6ccc7c8cnccc8n(C)c7c6)cn5)C4)CC3)no2)C(C)C)cc1` [Compound 379, (2S,4R)-4-hydroxy-1-((R)-3-methyl-2-(3-((5-(4-((1r,3r)-3-((5-(5-methyl-5H-pyrido[4,3-b]indol-7-yl)pyridin-2-yl)oxy)cyclobutoxy)piperidin-1-yl)pentyl)oxy)isoxazol-5-yl)butanoyl)-N-((S)-1-(4-(4-methylthiazol-5-yl)phenyl)ethyl) pyrrolidine-2-carboxamide], for which the remaining activity at 1 µM was greater than 50%.
